Measured values: the NIST ThermoML archive (doi:10.1016/j.jct.2012.12.014)
Numbers after ± are expanded uncertainties.

Test: mn = molality of the nth substance listed, in mol/kg
Conditions: 298.15 K, 101 kPa, Liquid, Vibrating tube method

Nc1cc[nH]c(=O)n1 [4-amino-2-hydroxypyrimidine] + O
Conditions	mass density [kg/m3]
m1 = 0.02193	997.872 ± 0.063
m1 = 0.02698	998.062 ± 0.063
m1 = 0.03192	998.246 ± 0.063
m1 = 0.03702	998.438 ± 0.063
m1 = 0.04187	998.618 ± 0.063
m1 = 0.04604	998.777 ± 0.063
m1 = 0.05099	998.96 ± 0.063
m1 = 0.05598	999.144 ± 0.063
m1 = 0.06284	999.402 ± 0.063
